This is an account of results in patent US20260138949A1, “NOVEL COMPOUND AS PHOSPHOLIPASE D INHIBITOR AND USE THEREOF” (UIF (UNIVERSITY INDUSTRY FOUNDATION), YONSEI UNIVERSITY, priority 2022, published 2026).

Each structure is given as a SMILES string.

The experiment deals with phospholipase D1. Briefly: PLD activity in HCT116 cells ([3H]phosphatidylbutanol, TLC). In kind it is cell-based, human. As to conditions: compound 10 μM, cells without the compound = 100%. Here is the method:
To evaluate the inhibitory effect of the compounds according to the present invention on phospholipase D1 activity, experiments were conducted as follows.
For the analysis of PLD activity in cells, human colon cancer cell line (HCT116) was cultured in a 6-well plate at 37° C. for 24 hours, washed twice with phosphate-buffered saline (PBS), and then replaced with medium containing [^3H]myristate and cultured for 24 hours. After the culture, the cells were washed three times with PBS, treated with 1-butanol, and the drug was added to a final concentration of 10 μM. The cells were trypsinized and suspended, and the amount of [^3H]phosphatidylbutanol produced in the cell suspension was measured and evaluated for PLD activity using thin layer chromatography (TLC), and the results are shown in Table 1 below.
The Remaining activity % at 10 μM in Table 1 is calculated by setting the amount of [^3H]phosphatidylbutanol produced in cells without the compound as 100% and calculating the amount of [^3H]phosphatidylbutanol produced in cells treated with the compound as a percentage. Therefore, the lower the value of Remaining activity %, the higher the PLD inhibitory activity.
In the case of `O=C(Cc1c[nH]c2ccccc12)NCc1ccc(F)cc1` [Example 1-37, N-(4-fluorobenzyl)-2-(1H-indol-3-yl)acetamide], the “Remaining activity % at 10 μM” value is reported as “not active”. With `COC(=O)c1ccc(CNC(=O)Cc2c[nH]c3ccccc23)cc1` [Example 1-38, methyl 4-((2-(1H-indol-3-yl)acetamido)methyl)benzoate] the figure was 99.81%. Next, `COc1ccc(CNC(=O)Cc2c[nH]c3ccccc23)cc1` [Example 1-39, 2-(1H-indol-3-yl)-N-(4-methoxybenzyl)acetamide]: 91.57%; `Cc1cccc(CNC(=O)Cc2c[nH]c3ccccc23)c1` [Example 1-40, 2-(1H-indol-3-yl)-N-(3-methylbenzyl)acetamide]: 95.87%. With `CC(C)(C)c1ccc(CNC(=O)Cc2c[nH]c3ccccc23)cc1` [Example 1-41, N-(4-tert-butylbenzyl)-2-(1H-indol-3-yl)acetamide] the figure was 59.99%; with `O=C(Cc1c[nH]c2ccccc12)NCc1cccc(C(F)(F)F)c1` [Example 1-42, 2-(1H-indol-3-yl)-N-(3-(trifluoromethyl)benzyl)acetamide], 34.44%; with `O=C(Cc1c[nH]c2ccccc12)NCc1ccc(C(F)(F)F)cc1` [Example 1-43, 2-(1H-indol-3-yl)-N-(4-(trifluoromethyl)benzyl)acetamide], 48.92%. As to `COc1ccc(CNC(=O)Cc2c[nH]c3ccccc23)c(OC)c1` [Example 1-44, N-(2,4-dimethoxybenzyl)-2-(1H-indol-3-yl)acetamide], the “Remaining activity % at 10 μM” value is given as 54.83%. For `COc1ccc(CNC(=O)Cc2c[nH]c3ccccc23)cc1OC` [Example 1-45, N-(3,4-dimethoxybenzyl)-2-(1H-indol-3-yl)acetamide], the “Remaining activity % at 10 μM” value stood at 41.05%.

As for `O=C(Cc1c[nH]c2ccccc12)NCc1ccc([N+](=O)[O-])cc1` [Example 1-46, 2-(1H-indol-3-yl)-N-(4-nitrobenzyl)acetamide], the “Remaining activity % at 10 μM” value is listed as 57.41%. With `O=C(Cc1c[nH]c2ccccc12)NCc1cccc(Cl)c1Cl` [Example 1-47, N-(2,3-dichlorobenzyl)-2-(1H-indol-3-yl)acetamide] the figure was 62.96%; with `O=C(Cc1c[nH]c2ccccc12)NCc1ccccc1Cl` [Example 1-48, N-(2-chlorobenzyl)-2-(1H-indol-3-yl)acetamide], 75.72%. With `O=C(Cc1c[nH]c2ccccc12)NCc1ccc(Cl)cc1` [Example 1-49, N-(4-chlorobenzyl)-2-(1H-indol-3-yl)acetamide] the figure was 59.74%; with `COc1ccccc1CNC(=O)Cc1c[nH]c2ccccc12` [Example 1-50, 2-(1H-indol-3-yl)-N-(2-methoxybenzyl)acetamide], 79.27%. With `O=C(Cc1c[nH]c2ccccc12)NNc1ccccc1Cl` [Example 1-51, N′-(2-chlorophenyl)-2-(1H-indol-3-yl)acetohydrazide] the figure was 82.82%; with `O=C(Cc1c[nH]c2ccccc12)NNc1cccc(Cl)c1` [Example 1-52, N′-(3-chlorophenyl)-2-(1H-indol-3-yl)acetohydrazide], 95.18%; with `O=C(Cc1c[nH]c2ccccc12)NNc1ccc(Cl)cc1` [Example 1-53, N′-(4-chlorophenyl)-2-(1H-indol-3-yl)acetohydrazide], “not active”. As for `O=C(Cc1c[nH]c2ccccc12)NNc1ccc(Cl)c(Cl)c1` [Example 1-54, N′-(3,4-dichlorophenyl)-2-(1H-indol-3-yl)acetohydrazide], the “Remaining activity % at 10 μM” value is reported as “not active”. Next, `O=C(Cc1c[nH]c2ccccc12)NNc1ccc(Br)cc1` [Example 1-55, N′-(4-bromophenyl)-2-(1H-indol-3-yl)acetohydrazide]: 77.89%; `O=C(Cc1c[nH]c2ccccc12)NCc1ccccn1` [Example 1-56, 2-(1H-indol-3-yl)-N-(pyridin-2-ylmethyl)acetamide]: 96.79%; `O=C(Cc1c[nH]c2ccccc12)NCc1cccnc1` [Example 1-57, 2-(1H-indol-3-yl)-N-(pyridin-3-ylmethyl)acetamide]: “not active”.

As to `O=C(Cc1c[nH]c2ccccc12)NCc1ccncc1` [Example 1-58, 2-(1H-indol-3-yl)-N-(pyridin-4-ylmethyl)acetamide], the “Remaining activity % at 10 μM” value was “not active”. In the case of `O=C(Cc1c[nH]c2ccccc12)NCCc1ccccc1` [Example 1-59, 2-(1H-indol-3-yl)-N-phenethylacetamide], the “Remaining activity % at 10 μM” value is “not active”. With `O=C(Cc1c[nH]c2ccccc12)NCCc1ccc(Br)cc1` [Example 1-60, N-(4-bromophenethyl)-2-(1H-indol-3-yl)acetamide] the figure was 82.15%. For `O=C(CCc1c[nH]c2ccccc12)Nc1ccccc1F` [Example 1-61, N-(2-fluorophenyl)-3-(1H-indol-3-yl)propanamide], the “Remaining activity % at 10 μM” value was 45.47%. Take `O=C(CCc1c[nH]c2ccccc12)Nc1cccc(F)c1` [Example 1-62, N-(3-fluorophenyl)-3-(1H-indol-3-yl)propanamide]: the “Remaining activity % at 10 μM” value was 49.36%.

`O=C(CCc1c[nH]c2ccccc12)Nc1ccc(F)cc1` [Example 1-63, N-(4-fluorophenyl)-3-(1H-indol-3-yl)propanamide]: the “Remaining activity % at 10 μM” value was “not active”. Next, `O=C(CCc1c[nH]c2ccccc12)Nc1cccc(Br)c1` [Example 1-64, N-(3-bromophenyl)-3-(1H-indol-3-yl)propanamide]: “not active”; `O=C(CCc1c[nH]c2ccccc12)Nc1ccc(Br)cc1` [Example 1-65, N-(4-bromophenyl)-3-(1H-indol-3-yl)propanamide]: “not active”; `O=C(CCc1c[nH]c2ccccc12)Nc1cc(F)cc(F)c1` [Example 1-66, N-(3,5-difluorophenyl)-3-(1H-indol-3-yl)propanamide]: 84.92%. Next, `O=C(CCc1c[nH]c2ccccc12)Nc1cc(C(F)(F)F)cc(C(F)(F)F)c1` [Example 1-67, N-(3,5-bis(trifluoromethyl)phenyl)-3-(1H-indol-3-yl)propanamide]: 29.17%; `O=C(CCc1c[nH]c2ccccc12)Nc1ccc(Cl)c([N+](=O)[O-])c1` [Example 1-68, N-(4-chloro-3-nitrophenyl)-3-(1H-indol-3-yl)propanamide]: “not active”; `O=C(CCc1c[nH]c2ccccc12)Nc1ccc(Cl)c(Cl)c1` [Example 1-69, N-(3,4-dichlorophenyl)-3-(1H-indol-3-yl)propanamide]: “not active”. Turning to `COc1ccc(NC(=O)CCc2c[nH]c3ccccc23)cc1OC` [Example 1-70, N-(3,4-dimethoxyphenyl)-3-(1H-indol-3-yl)propanamide], the “Remaining activity % at 10 μM” value is given as “not active”. With `COc1ccc(CNC(=O)CCc2c[nH]c3ccccc23)cc1` [Example 1-71, 3-(1H-indol-3-yl)-N-(4-methoxybenzyl)propanamide] the figure was 51.45%.
